Data taken from patent US9938273B2 (Plexxikon Inc., priority 2015, dated 2018).

Assays:
[1] = test system: MOLM-14 F691L cells, FLT3 ITD and FLT3 F691L; experiment: Cell proliferation assay (CellTiter-Glo), MOLM-14 F691L; format: cell-based; conditions: Homo sapiens, 72 h, 3d-Growth, GMean
Outline: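 MOLM-14 AML cells (endogenous FLT3 ITD, AC220-selected D835Y or F691L variants) or murine Ba/F3 expressing full-length FLT3 ITD/D835Y, without IL-3 for FLT3 dependence, 1×10^4 cells/well. Eight-point 1:3 series from 1 μM final, 0.2% DMSO, 3 days at 37 °C. CellTiter-Glo luminescence (ATP) gave IC50.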

[2] = biological target: T1, FLT3-ITD (Homo sapiens, UniProt P36888); experiment: AlphaScreen kinase assay with recombinant enzyme, FLT3-ITD; format: biochemical; conditions: 8pt; read-out: FLT3_ITD 8pt: IC50
T1 sequence (P36888 1-993): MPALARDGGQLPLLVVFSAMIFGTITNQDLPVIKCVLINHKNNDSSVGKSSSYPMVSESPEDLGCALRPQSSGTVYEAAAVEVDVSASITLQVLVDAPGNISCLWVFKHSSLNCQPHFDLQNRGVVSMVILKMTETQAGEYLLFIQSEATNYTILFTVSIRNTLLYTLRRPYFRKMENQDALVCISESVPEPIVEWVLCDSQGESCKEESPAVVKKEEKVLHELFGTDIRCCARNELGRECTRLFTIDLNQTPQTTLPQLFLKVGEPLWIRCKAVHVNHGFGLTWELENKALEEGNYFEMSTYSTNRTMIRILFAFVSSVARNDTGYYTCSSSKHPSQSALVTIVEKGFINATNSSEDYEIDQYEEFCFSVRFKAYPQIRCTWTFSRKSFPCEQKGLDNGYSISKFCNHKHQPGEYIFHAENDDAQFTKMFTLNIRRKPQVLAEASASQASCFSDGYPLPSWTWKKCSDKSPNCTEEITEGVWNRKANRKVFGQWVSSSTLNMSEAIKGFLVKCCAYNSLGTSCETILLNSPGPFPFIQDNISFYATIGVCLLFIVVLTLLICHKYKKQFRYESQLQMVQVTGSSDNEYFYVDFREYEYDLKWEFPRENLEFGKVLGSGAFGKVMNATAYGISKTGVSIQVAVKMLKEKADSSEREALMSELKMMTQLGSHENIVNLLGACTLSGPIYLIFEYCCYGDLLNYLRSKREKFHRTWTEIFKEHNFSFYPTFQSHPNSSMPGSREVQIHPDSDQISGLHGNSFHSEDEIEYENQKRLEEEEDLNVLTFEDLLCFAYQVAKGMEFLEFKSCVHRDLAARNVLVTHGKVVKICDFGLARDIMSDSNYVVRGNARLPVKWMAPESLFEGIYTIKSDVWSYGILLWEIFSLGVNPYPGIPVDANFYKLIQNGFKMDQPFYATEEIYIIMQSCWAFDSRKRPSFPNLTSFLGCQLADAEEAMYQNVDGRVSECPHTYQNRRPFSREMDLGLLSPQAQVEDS
Outline: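 Recombinant kinase phosphorylates biotinylated poly(Glu4-Tyr) peptide (30 nM final); streptavidin donor and anti-phosphotyrosine PY20 acceptor beads (10 μg/mL final) give a 580 nm proximity signal on 680 nm excitation. IC50 determinations used a final concentration of 10 μM for FLT3-D835Y/FLT3-ITD and 100 μM for c-KIT.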

With `C#Cc1cc2cc(-c3cccc(S(=O)(=O)NC4CC4)c3)cnc2[nH]1` [Compound P-0004, N-cyclopropyl-3-(2-ethynyl-1H-pyrrolo[2,3-b]pyridin-5-yl)benzenesulfonamide] the IC50 [1] was 0.0001 to 10 µM.
In the case of `CN(C)CC#Cc1cc2cc(-c3cccc(S(=O)(=O)NC4CC4)c3)cnc2[nH]1` [Compound P-0009, N-cyclopropyl-3-[2-[3-(dimethylamino)prop-1-ynyl]-1H-pyrrolo[2,3-b]pyridin-5-yl]benzenesulfonamide], the IC50 [1] is reported as 0.0001 to 10 µM.
`O=S(=O)(NC1CC1)c1cccc(-c2cnc3[nH]c(C#CC4CCCCC4)cc3c2)c1` [Compound P-0010, 3-[2-(2-cyclohexylethynyl)-1H-pyrrolo[2,3-b]pyridin-5-yl]-N-cyclopropyl-benzenesulfonamide] gave an IC50 [1] of 0.0001 to 10 µM.
For `CNC1CCN(C(=O)c2cccc(-c3cnc4[nH]c(-c5cn(C)nc5C)cc4c3)n2)C1` (stereo not shown) [Compound P-0049, [6-[2-(1,3-dimethylpyrazol-4-yl)-1H-pyrrolo[2,3-b]pyridin-5-yl]-2-pyridyl]-[3-(methylamino)pyrrolidin-1-yl]methanone], the IC50 [2] was 0.0001 to 10 µM and the IC50 [1] was 0.0001 to 10 µM.
Work on `c1ccc(-c2cc3cc(-c4cccc(OC5CCNCC5)n4)cnc3[nH]2)cc1` [Compound P-0050, 2-phenyl-5-[6-(4-piperidyloxy)-2-pyridyl]-1H-pyrrolo[2,3-b]pyridine] yielded an IC50 [2] of 0.0001 to 10 µM and an IC50 [1] of 0.0001 to 10 µM.
Work on `N[C@H]1CCN(C(=O)c2ncc(-c3cnc4[nH]c(-c5ccccc5)cc4c3)s2)C1` [Compound P-0054, [(3S)-3-aminopyrrolidin-1-yl]-[5-(2-phenyl-1H-pyrrolo[2,3-b]pyridin-5-yl)thiazol-2-yl]methanone] yielded an IC50 [2] of 0.0001 to 10 µM and an IC50 [1] of 0.0001 to 10 µM.
`O=S(=O)(NC1CNC1)c1cccc(-c2cnc3[nH]c(-c4ccccc4)cc3c2)n1` [Compound P-0071, N-(azetidin-3-yl)-6-(2-phenyl-1H-pyrrolo[2,3-b]pyridin-5-yl)pyridine-2-sulfonamide] showed an IC50 [2] of 0.0001 to 10 µM.
`O=S(=O)(NC1CCNC1)c1cccc(-c2cnc3[nH]c(-c4ccccc4)cc3c2)n1` (stereo not shown) [Compound P-0072, 6-(2-phenyl-1H-pyrrolo[2,3-b]pyridin-5-yl)-N-pyrrolidin-3-yl-pyridine-2-sulfonamide] showed an IC50 [2] of 0.0001 to 10 µM.
For `NC1CCN(S(=O)(=O)c2cccc(-c3cnc4[nH]c(-c5ccccc5)cc4c3)n2)CC1` [Compound P-0073, 1-[[6-(2-phenyl-1H-pyrrolo[2,3-b]pyridin-5-yl)-2-pyridyl]sulfonyl]piperidin-4-amine], the IC50 [2] was 0.0001 to 10 µM.
Compound `CN1CC(NC(=O)c2cccc(-c3cnc4[nH]c(-c5ccccc5)cc4c3)n2)C1` [Compound P-0075, N-(1-methylazetidin-3-yl)-6-(2-phenyl-1H-pyrrolo[2,3-b]pyridin-5-yl)pyridine-2-carboxamide] has an IC50 [2] of 0.0001 to 10 µM.
With `NC1(C(F)(F)F)CCN(C(=O)c2cccc(-c3cnc4[nH]c(-c5ccccc5)cc4c3)n2)C1` (stereo not shown) [Compound P-0077, [3-amino-3-(trifluoromethyl)pyrrolidin-1-yl]-[6-(2-phenyl-1H-pyrrolo[2,3-b]pyridin-5-yl)-2-pyridyl]methanone] the IC50 [2] was 0.0001 to 10 µM.
Compound `CC1(N)CCN(C(=O)c2cccc(-c3cnc4[nH]c(-c5ccccc5)cc4c3)n2)C1` (stereo not shown) [Compound P-0078, (3-amino-3-methyl-pyrrolidin-1-yl)-[6-(2-phenyl-1H-pyrrolo[2,3-b]pyridin-5-yl)-2-pyridyl]methanone] has an IC50 [2] of 0.0001 to 10 µM.
`CNCC1CCN(C(=O)c2cccc(-c3cnc4[nH]c(-c5ccccc5)cc4c3)n2)C1` (stereo not shown) [Compound P-0079, [3-(methylaminomethyl)pyrrolidin-1-yl]-[6-(2-phenyl-1H-pyrrolo[2,3-b]pyridin-5-yl)-2-pyridyl]methanone] was tested, and the IC50 [2] was 0.0001 to 10 µM.
`O=C(c1cccc(-c2cnc3[nH]c(-c4ccccc4)cc3c2)n1)N1CC(F)(F)C1` [Compound P-0090, (3,3-difluoroazetidin-1-yl)-[6-(2-phenyl-1H-pyrrolo[2,3-b]pyridin-5-yl)-2-pyridyl]methanone] gave an IC50 [2] of 0.0001 to 10 µM.
Work on `COC1CN(C(=O)c2cccc(-c3cnc4[nH]c(-c5ccccc5)cc4c3)n2)C1` [Compound P-0091, (3-methoxyazetidin-1-yl)-[6-(2-phenyl-1H-pyrrolo[2,3-b]pyridin-5-yl)-2-pyridyl]methanone] yielded an IC50 [2] of 0.0001 to 10 µM.
Compound `CC1(C#N)CCN(C(=O)c2cccc(-c3cnc4[nH]c(-c5ccccc5)cc4c3)n2)CC1` [Compound P-0094, 4-methyl-1-[6-(2-phenyl-1H-pyrrolo[2,3-b]pyridin-5-yl)pyridine-2-carbonyl]piperidine-4-carbonitrile] has an IC50 [2] of 0.0001 to 10 µM.
Compound `COC1CCN(C(=O)c2cccc(-c3cnc4[nH]c(-c5ccccc5)cc4c3)n2)CC1` [Compound P-0098, (4-methoxy-1-piperidyl)-[6-(2-phenyl-1H-pyrrolo[2,3-b]pyridin-5-yl)-2-pyridyl]methanone] has an IC50 [2] of 0.0001 to 10 µM.
In the case of `CS(=O)(=O)NC1CCN(C(=O)c2cccc(-c3cnc4[nH]c(-c5ccccc5)cc4c3)n2)C1` (stereo not shown) [Compound P-0101, N-[1-[6-(2-phenyl-1H-pyrrolo[2,3-b]pyridin-5-yl)pyridine-2-carbonyl]pyrrolidin-3-yl]methanesulfonamide], the IC50 [2] is reported as 0.0001 to 10 µM.
`O=C(c1cccc(-c2cnc3[nH]c(-c4ccccc4)cc3c2)n1)N1CCC(N2CCOCC2)C1` (stereo not shown) [Compound P-0102, (3-morpholinopyrrolidin-1-yl)-[6-(2-phenyl-1H-pyrrolo[2,3-b]pyridin-5-yl)-2-pyridyl]methanone] was tested, and the IC50 [2] was 0.0001 to 10 µM.
Compound `O=C(c1cccc(-c2cnc3[nH]c(-c4ccccc4)cc3c2)n1)N1CCC(C(F)(F)F)C1` (stereo not shown) [Compound P-0103, [6-(2-phenyl-1H-pyrrolo[2,3-b]pyridin-5-yl)-2-pyridyl]-[3-(trifluoromethyl)pyrrolidin-1-yl]methanone] has an IC50 [2] of 0.0001 to 10 µM.
In the case of `CN(C)C1CCN(C(=O)c2cccc(-c3cnc4[nH]c(-c5ccccc5)cc4c3)n2)C1` (stereo not shown) [Compound P-0104, [3-(dimethylamino)pyrrolidin-1-yl]-[6-(2-phenyl-1H-pyrrolo[2,3-b]pyridin-5-yl)-2-pyridyl]methanone], the IC50 [2] is reported as 0.0001 to 10 µM.
In the case of `CC(C)(C#N)NC(=O)c1cccc(-c2cnc3[nH]c(-c4cnc(N5CCOCC5)nc4)cc3c2)n1` [Compound P-0198, N-(1-cyano-1-methyl-ethyl)-6-[2-(2-morpholinopyrimidin-5-yl)-1H-pyrrolo[2,3-b]pyridin-5-yl]pyridine-2-carboxamide], the IC50 [2] is reported as 0.0001 to 10 µM.
In the case of `CC(C)(C#N)NC(=O)c1cccc(-c2cnc3[nH]c(-c4cccc(N5CCCS5(=O)=O)c4)cc3c2)n1` [Compound P-0199, N-(1-cyano-1-methyl-ethyl)-6-[2-[3-(1,1-dioxo-1,2-thiazolidin-2-yl)phenyl]-1H-pyrrolo[2,3-b]pyridin-5-yl]pyridine-2-carboxamide], the IC50 [2] is reported as 0.0001 to 10 µM.
`CC(C)(NC(=O)c1cccc(-c2cnc3[nH]c(-c4cnn(C5CCNCC5)c4)cc3c2)n1)C(N)=O` [Compound P-0200, N-(2-amino-1,1-dimethyl-2-oxo-ethyl)-6-[2-[1-(4-piperidyl)pyrazol-4-yl]-1H-pyrrolo[2,3-b]pyridin-5-yl]pyridine-2-carboxamide] showed an IC50 [2] of 0.0001 to 10 µM.
With `CC(C)(C#N)NC(=O)c1cccc(-c2cnc3[nH]c(-c4cnc(N5CCCC5)nc4)cc3c2)n1` [Compound P-0202, N-(1-cyano-1-methyl-ethyl)-6-[2-(2-pyrrolidin-1-ylpyrimidin-5-yl)-1H-pyrrolo[2,3-b]pyridin-5-yl]pyridine-2-carboxamide] the IC50 [2] was 0.0001 to 10 µM.
